Laboratory results: patent publication US4704397A, “Pharmaceutical salts of 4-(9-acridinyl-amino) methanesulfon-m-anisidide” (Warner-Lambert Company, priority 1981, dated 1987)
Read-outs that look alike come from different tables or passages of the source.

Key:
[1] = type: physicochemical; conditions: warming to room temperature and shaking
Excerpt: The salts of the present invention allow one to prepare solutions of m-AMSA without the aid of dimethylacetamide. Depending upon the salt, concentration and temperature,standing may result in certain of the solutions of salts forming gels. However, a salt need only remain in solution for a period long enough for it to be administered to a patient.
Stability of Preferred --m-AMSA Salts

mice = conditions: studies using mice; cited from earlier work

COc1cc(NS(C)(=O)=O)ccc1Nc1c2ccccc2nc2ccccc12 [gluconate, 4'-(9-acridinylamino)methanesulfon-m-anisidide D-gluconate]
return of gelled solution to fluid state ([1]; 10 mg/ml after storing at 5 °C): could not be achieved
return of gelled solution to fluid state ([1]; lower concentrations gelled at 5 °C): could be returned to a fluid state

COc1cc(NS(C)(=O)=O)ccc1Nc1c2ccccc2nc2ccccc12 [m-AMSA, 4'-(9-acridinylamino)methanesulfon-m-anisidide]
activity in treating mammals (mice): high degree of activity
